Patent publication US5849782A, “Methods of inhibiting neurodegenerative diseases” (The General Hospital Corporation, priority 1996, dated 1998)

Test system: Male Sprague-Dawley rats
Assay: Lactate and lesion volume by magnetic resonance after intrastriatal malonate
Type: in vivo, rat
Protocol: Localized Lactate Measurements by Magnetic Resonance Spectroscopy. The effects on lactate production of intrastriatal injections of 3 μmol malonate and the influence of pretreatment with 7-NI on these lactate levels were assessed in vivo using magnetic resonance imaging (Brouillet et al. (1993) J. Neurochem. 60:356-359). Male Sprague-Dawley rats weighing 275-325 g received either i.p. injections of peanut oil (vehicle) or 50 mg/kg 7-NI (n=5-6 per group). […] Rats were imaged under halothane/N2 O/O2 anesthesia on a 4.7 Tesla GE Omega CSI Imager using a 30 mm bird cage coil at 1.5-2 h after striatal malonate injections. […] Lesion volumes were measured using a T2 -weighted sequence (TR/TE 3200/80 ms) with slice thickness of 2.5 mm, and a field of view of 40 mm. Lesion volumes were measured using a criterion for abnormal tissue of being 2 standard deviations above the mean signal intensity in the contralateral unaffected striatum. Lactate was measured using double phase encoding three dimensional (x,y,ω) water suppressed chemical shift imaging sequence with an inversion pulse for lipid suppression described earlier (Jenkins et al. (1993) Neurology 43:2689-2695). […] Lactate concentrations were measured in the lesioned striatum by delineating the striatum in the water image and overlaying the contours on the lactate images. […]

SMILES: O=[N+]([O-])c1cccc2cn[nH]c12 [7-NI, 7-nitroindazole]
- malonate-induced increase in striatal lactate concentrations (MR spectroscopy) (7-NI 50 mg/kg i.p. 0.5 h before striatal lesion, 1.5 h after malonate): significantly attenuated
- lesion volume by T2-weighted MR imaging (2 h after striatal malonate, n=6, vehicle 84.01±16.2, p<0.01): 34.9±27.7 mm^3
